# Ends that are not written are not given here.
# Target: T1, BRPF1 bromodomain (Homo sapiens, UniProt P55201)
# T1 sequence (P55201 629-742): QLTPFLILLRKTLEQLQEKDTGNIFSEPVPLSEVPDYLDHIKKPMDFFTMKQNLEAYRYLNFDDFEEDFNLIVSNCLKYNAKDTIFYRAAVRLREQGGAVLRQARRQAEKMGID
# Assay: biochemical
# Assay type: binding
# Settings: SD
substance,measurement,value
LGKGGAK(Ac)RHRK [H4K16ac (10–20)],Kd,518 ± 92.1 µM

# Reference: publication PMC7861561 (Current Research in Structural Biology, 2020)
